Here are results for eleven molecules from patent publication US20220017516A1, “LOX INHIBITORS” (THE INSTITUTE OF CANCER RESEARCH: ROYAL CANCER HOSPITAL, priority 2018, published 2022).

Like-named read-outs stand apart in the source and are kept apart here. A value given as a limit tells only on which side of the number the result lay.

The target in test [1] is T1, LOXL2 (Homo sapiens, UniProt Q9Y4K0).
T1 construct: purchased R&D Systems/Bio-techne
T1 sequence (Q9Y4K0 26-774): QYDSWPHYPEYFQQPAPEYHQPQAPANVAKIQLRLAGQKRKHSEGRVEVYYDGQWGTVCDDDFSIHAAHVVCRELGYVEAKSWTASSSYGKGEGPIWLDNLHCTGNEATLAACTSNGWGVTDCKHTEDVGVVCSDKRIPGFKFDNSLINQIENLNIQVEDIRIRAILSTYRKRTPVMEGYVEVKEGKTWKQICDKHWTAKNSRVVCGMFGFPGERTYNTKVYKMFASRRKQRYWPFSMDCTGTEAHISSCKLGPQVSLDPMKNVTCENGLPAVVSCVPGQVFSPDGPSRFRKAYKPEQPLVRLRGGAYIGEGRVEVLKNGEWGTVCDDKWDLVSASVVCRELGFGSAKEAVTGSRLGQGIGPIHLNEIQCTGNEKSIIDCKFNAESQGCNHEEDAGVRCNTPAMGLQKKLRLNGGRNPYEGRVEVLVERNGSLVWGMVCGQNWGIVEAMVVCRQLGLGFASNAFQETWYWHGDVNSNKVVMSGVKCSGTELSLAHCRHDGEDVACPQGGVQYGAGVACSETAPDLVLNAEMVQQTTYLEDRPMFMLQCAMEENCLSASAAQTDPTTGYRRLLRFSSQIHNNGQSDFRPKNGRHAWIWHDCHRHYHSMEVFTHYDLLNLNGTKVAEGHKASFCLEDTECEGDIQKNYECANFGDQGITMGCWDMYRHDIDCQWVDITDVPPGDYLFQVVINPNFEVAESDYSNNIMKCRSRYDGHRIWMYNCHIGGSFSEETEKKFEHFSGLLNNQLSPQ
Kind of test: LOX isoform activity assay (ROS Glo), LOXL2. The format is biochemical. Here is the method: (§1) LOX was extracted from pig skin by previously described methods (Shackleton and Hulmes, 1990). LOXL2 and LOXL3 were obtained from R&D Systems/Bio-techne. The Promega ROS Glo assay kit (G8821) was used to assess enzyme activity. Overall, test compound was added to either 384 well assay plates (Greiner) using a Labcyte Echo™ Acoustic Handler or to 96 well plates for a final assay concentration of 100, 30, 10, 3, 1, 0.3, 0.1, 0.03, 0.01 and 0.003 μM final assay concentration. Enzymes were diluted according to specific pre-determined activity in assay buffer (100 mM CHES, pH 9, 0.05% (w/v) pluronic F-127, 0.5% (w/v) BSA, 1 mM MgCl2, 1 M urea, 100 mM NaCl) and added to the plate. For LOXL2, the mixture was incubated for 20 min, 1 h or 20 h; for LOX and LOXL3, incubation time was 1 h. Cadaverine and H2O2 substrate were then added to each well (final assay concentration 19.56 mM and 25 μM respectively) and the plates were incubated for 1.5 h (for LOX) or 1 h (for LOXL2 and LOXL3) at room temperature. Finally, luciferin detection reagent was added and plates were incubated for 20 min at room temperature, protected from light. Luminescence was measured using a BMG LABTECH PHERAstar FS reader and resulting IC50 values were calculated using GraphPad Prism software.
In another setting, LOXL2 enzyme was diluted according to specific pre-determined activity in assay buffer (100 mM CHES, pH 9, 0.05% (w/v) pluronic F-127, 0.5% (w/v) BSA, 1 mM MgCl2, 1 M urea, 100 mM NaCl). Overall, 0.5 μl test compound was added to 40 μl assay buffer+LOXL2 at 100, 30, 10, 3, 1, 0.3, 0.1, 0.03, 0.01 and 0.003 μM (final concentration) in a 96-well white polystyrene, flat bottom plates (Fisher) and incubated for the indicated time at room temperature. 10 μl of assay buffer containing 97.8 mM cadaverine and 125 μM H2O2 substrate (final assay concentration 19.56 mM and 25 μM respectively) were added to each well and plates were incubated for 1 h at room temperature. Finally, 50 μl per well luciferin detection reagent was added and plates were incubated for 20 min at room temperature, protected from light. Luminescence was measured with an integration time of 500 ms per well using a SpectaMax M5 plate reader and resulting IC50 values were calculated using GraphPad Prism software.

The target in test [2] is T2, LOX (Sus scrofa, UniProt P45845).
T2 construct: LOX was extracted from pig skin by previously described methods; from tissue; host or cells: pig skin
T2 sequence (P45845 1-249): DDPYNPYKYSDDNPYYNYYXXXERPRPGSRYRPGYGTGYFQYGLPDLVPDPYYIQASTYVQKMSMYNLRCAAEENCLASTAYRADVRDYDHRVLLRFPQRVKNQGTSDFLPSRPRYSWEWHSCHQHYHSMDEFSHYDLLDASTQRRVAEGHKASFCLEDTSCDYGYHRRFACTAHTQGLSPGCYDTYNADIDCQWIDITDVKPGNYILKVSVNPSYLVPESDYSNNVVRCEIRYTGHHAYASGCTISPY
Kind of test: LOX isoform activity assay (ROS Glo), LOX. The class given is biochemical, pig. Conditions: 1 h incubation with enzyme. Here is the method:
as §1

In test [3] the target is T3, monoamine oxidase A (MAO-A) (Homo sapiens, UniProt P21397).
T3 construct: purchased Promega V1452
T3 sequence (P21397 1-527): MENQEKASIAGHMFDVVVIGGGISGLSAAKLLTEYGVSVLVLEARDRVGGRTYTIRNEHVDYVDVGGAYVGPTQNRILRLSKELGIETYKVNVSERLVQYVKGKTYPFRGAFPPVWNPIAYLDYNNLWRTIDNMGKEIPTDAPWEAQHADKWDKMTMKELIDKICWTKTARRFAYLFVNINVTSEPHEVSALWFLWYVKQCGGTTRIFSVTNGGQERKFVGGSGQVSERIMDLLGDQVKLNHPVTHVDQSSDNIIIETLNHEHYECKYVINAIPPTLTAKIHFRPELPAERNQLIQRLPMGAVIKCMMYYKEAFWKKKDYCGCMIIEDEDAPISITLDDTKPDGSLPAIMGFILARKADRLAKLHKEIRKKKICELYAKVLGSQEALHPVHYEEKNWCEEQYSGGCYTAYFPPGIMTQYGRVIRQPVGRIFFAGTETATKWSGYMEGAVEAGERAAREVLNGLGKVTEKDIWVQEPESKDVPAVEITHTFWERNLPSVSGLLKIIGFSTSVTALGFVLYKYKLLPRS
Kind of test: Amine oxidase activity assay (MAO-Glo), MAO-A. The format is biochemical. Here is the method: (§2) The Promega MAO-Glo assay kit (V1402) was used to assess monoamine oxidase A (MAO-A) and monoamine oxidase B (MAO-B) activity. MAO substrate was prepared at 80 μM with the specific MAO-A/B reaction buffer. Overall, 0.5 μl test compound was added to 25 μl MAO substrate at 100, 30, 10, 3, 1, 0.3, 0.1, 0.03, 0.01 and 0.003 μM (final concentration) in a 96-well white, flat bottom plate. Overall, 25 μl of 1:520 dilution of MAO-A enzyme (Promega, V1452) or 25 μl of 1:52 dilution of MAO-B enzyme (Sigma, M7441) in specific MAO-A/B reaction buffer was added to each well (enzyme prepared at 2×final concentration) and plates were incubated for 1 h at room temperature. Finally, 50 μl per well luciferin detection reagent was added and plates were incubated for 20 min at room temperature, protected from light. Luminescence was measured with an integration time of 500 ms per well using a SpectaMax M5 plate reader and resulting IC50 values were calculated using GraphPad Prism software.
(§3) In another setting, the DAO and MAO assays were performed in 384-well plates (Greiner) and test compound was added using a Labcyte Echo™ Acoustic Handler for the same final concentrations as in the 96-well setting. Luminescence was measured with BMG LABTECH PHERAstar FS plate reader.

The target in test [4] is T4, monoamine oxidase B (MAO-B) (Homo sapiens, UniProt P27338).
T4 construct: purchased Sigma M7441
T4 sequence (P27338 1-520): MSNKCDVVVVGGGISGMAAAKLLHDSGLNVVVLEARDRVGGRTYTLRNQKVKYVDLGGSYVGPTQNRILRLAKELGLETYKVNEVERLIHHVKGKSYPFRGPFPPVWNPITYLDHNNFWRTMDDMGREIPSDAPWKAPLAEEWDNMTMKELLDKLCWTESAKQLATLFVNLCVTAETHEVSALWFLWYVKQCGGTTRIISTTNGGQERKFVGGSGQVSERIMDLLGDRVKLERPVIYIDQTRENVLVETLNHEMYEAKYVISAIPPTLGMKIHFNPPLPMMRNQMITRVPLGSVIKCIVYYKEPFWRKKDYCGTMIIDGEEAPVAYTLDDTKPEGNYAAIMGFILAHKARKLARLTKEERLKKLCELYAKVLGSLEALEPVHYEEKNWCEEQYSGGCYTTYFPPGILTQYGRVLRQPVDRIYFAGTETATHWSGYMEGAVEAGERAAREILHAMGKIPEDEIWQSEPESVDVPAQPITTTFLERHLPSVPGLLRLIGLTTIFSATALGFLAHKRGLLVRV
Put plainly: Amine oxidase activity assay (MAO-Glo), MAO-B. The class given is biochemical. Here is the method:
as §2, §3

Where [5] appears, read: 20 hr incubation with enzyme; read-out: LOXL2 IC50 c) 20 hr.
Where [6] appears, read: 1 hr incubation with enzyme; read-out: LOXL2 IC50 b) 1 hr.
[7] abbreviates: 20 min incubation with enzyme; read-out: LOXL2 IC50 a) 20 min.

In general, IC50 refers to the midpoint of a concentration-inhibition curve. Turning to `CC1(C)C[C@@H]2CN(C(=O)CS(=O)(=O)CCN)C[C@H]1N(c1ccc(N3CCS(=O)(=O)CC3)cc1)C2` [Example 10, 2-((2-aminoethyl)-sulfonyl)-1-((1S,5S)-6-(4-(1,1-dioxido-thiomorpholino)-phenyl)-9,9-dimethyl-3,6-diaza-bicyclo[3.2.2]nonan-3-yl)ethan-1-one], the IC50 in test [1] (setting [5]) was found to be 0.94 µM.
On to `CC1(C)C[C@@H]2CN(CCS(=O)(=O)CCN)C[C@H]1N(c1ccc(N3CCS(=O)(=O)CC3)cc1)C2` [Example 5, 4-(4-((1R,5S)-3-(2-((2-aminoethyl)sulfonyl)ethyl)-9,9-dimethyl-3,6-diazabicyclo[3.2.2]nonan-6-yl)phenyl)thiomorpholine 1,1-dioxide], for which, in test [1] (setting [5]), the IC50 was determined as 0.48 µM.
In the case of `CCOc1ccc(N2C[C@@H]3CC[C@H]2CN(C(=O)CS(=O)(=O)CCN)C3)cc1` [Example 9, 2-((2-aminoethyl)-sulfonyl)-1-((1S,5S)-6-(4-ethoxyphenyl)-3,6-diazabicyclo-[3.2.2]nonan-3-yl)-ethan-1-one], the values for the IC50 in test [2] and in test [1] (setting [5]) were greater than 100 µM and 0.34 µM, respectively.
`CCOc1ccc(N2C[C@H]3CN(C(=O)C(C)S(=O)(=O)CCN)C[C@@H]2C(C)(C)C3)cc1` (mixture of isomers) [Example 39, 2-((2-aminoethyl)sulfonyl)-1-((1S,5S)-6-(4-ethoxyphenyl)-9,9-dimethyl-3,6-diazabicyclo[3.2.2]nonan-3-yl)propan-1-one]: the 50% inhibitory concentration (IC50) is 10 µM in test [2] and 0.41 µM in test [1] (setting [6]).
In the case of `CCNC(=O)N1C[C@@H]2CN(c3ccc(OCCCS(=O)(=O)CCN)cc3)[C@H](C1)C(C)(C)C2` [Example 36, (1S,5S)-6-(4-(3-((2-aminoethyl)sulfonyl)propoxy)phenyl)-N-ethyl-9,9-dimethyl-3,6-diazabicyclo[3.2.2]nonane-3-carboxamide], the IC50 came out at 4.5 µM in test [2] and 5.1 µM in test [1] (setting [5]).
Consider `CC1(C)C[C@@H]2CN(C(=O)C(F)S(=O)(=O)CCN)C[C@H]1N(c1ccc(N3CCS(=O)(=O)CC3)cc1)C2` (stereo partly drawn) [Example 17, 2-((2-aminoethyl)-sulfonyl)-1-((1S,5S)-6-(4-(1,1-dioxido-thiomorpholino)-phenyl)-9,9-dimethyl-3,6-diaza-bicyclo[3.2.2]nonan-3-yl)-2-fluoroethan-1-one], for which the IC50 in test [1] (setting [6]) came out at 0.11 µM.
Consider `CC1(C)C[C@@H]2CN(C(=O)NCCO)C[C@H]1N(c1ccc(OCCCS(=O)(=O)CCN)cc1)C2` [Example 34, (1S,5S)-6-(4-(3-((2-aminoethyl)sulfonyl)propoxy)phenyl)-N-(2-hydroxyethyl)-9,9-dimethyl-3,6-diazabicyclo[3.2.2]nonane-3-carboxamide], for which the IC50 in test [1] (setting [5]) was 9.3 µM.
Regarding `CCOc1ccc(N2C[C@H]3CN(C(=O)c4ccc(S(=O)(=O)CCN)cc4)C[C@@H]2C(C)(C)C3)cc1` [Example 31, (4-((2-aminoethyl)sulfonyl)phenyl)((1S,5S)-6-(4-ethoxyphenyl)-9,9-dimethyl-3,6-diazabicyclo[3.2.2]nonan-3-yl)methanone], the values for the IC50 in test [2] and in test [1] (setting [7]) were 96 µM and 16 µM, respectively.
Regarding `CC1(C)C[C@@H]2CN(C(=O)N3CCS(=O)(=O)CC3)C[C@H]1N(c1ccc(OCCCS(=O)(=O)CCN)cc1)C2` [Example 35, ((1S,5S)-6-(4-(3-((2-aminoethyl)sulfonyl)-propoxy)phenyl)-9,9-dimethyl-3,6-diaza-bicyclo[3.2.2]nonan-3-yl)(1,1-dioxido-thiomorpholino) methanone], in test [1] (setting [5]), the IC50 is 6.7 µM.
As to `CCOc1ccc(N2C[C@H]3CN(CCCS(=O)(=O)CCN)C[C@@H]2C(C)(C)C3)cc1` [Example 6, 2-((3-((1R,5S)-6-(4-ethoxyphenyl)-9,9-dimethyl-3,6-diazabicyclo[3.2.2]nonan-3-yl)propyl)sulfonyl)ethan-1-amine], the results for the IC50 in test [2] and in test [1] (setting [5]) were 58 µM and 2.5 µM, respectively.
With `NCCS(=O)(=O)CCN1CCCN(c2ccc(N3CCS(=O)(=O)CC3)cc2)CC1` [Example 3, 4-(4-(4-(2-((2-aminoethyl)sulfonyl)ethyl)-1,4-diazepan-1-yl)phenyl) thiomorpholine-1,1-dioxide], the IC50 in test [1] (setting [7]) was 8.1 µM; in test [3], greater than 100 µM; in test [4] it was greater than 100 µM.
